# pIC50: −log10 of the molar value.
# Legend:
# washed human platelets = experiment: Analysis of partial agonism (human washed platelets); format: cell-based; settings: 5 and 10 min. incubation
# Method: Sixty ml of blood were drawn into 1/10 volume of CCD (100 mM Na Citrate and 136 mM glucose, pH 6.5 with HCl) and PRP prepared as described above. PRP was placed on ice for 15 min. One half of the volume of CCD was added and recentrifuged. The platelet pellet was gently resuspended in 1/2 the original volume of PRP in a 0° C. modified Tangen-Hepes-BSA buffer (145 mM NaCl, 5 mM KCl, 0.05 mM CaCl2, 0.1 mM MgCl2, 11 mM glucose, 15 mM Hepes, 1 mg/ml bovine serum albumin, pH adjusted to 7.4 with NaOH). The resuspended platelets were incubated undisturbed at 37° C. for 30 min. After incubation a platelet count was determined and adjusted to 3×10^8 cells/ml with the Tangen-Hepes-BSA buffer.
# 425 μl of the washed human platelet suspension was incubated in the aggregometer in the presence of 16 mM CaCl2 (50 μl) and SC-46985 for 5 and 10 min. […] (In a study similar to (a) above, aliquots of human washed platelets were incubated with various concentrations of SC-46985 and U-46619 to determine dose-related inhibition of aggregation).
# [1] = test system: U-46619-induced platelet aggregation (rat platelet rich plasma); experiment: Inhibition of U-46619-induced platelet aggregation in vitro in rat platelet rich plasma; format: cell-based; settings: rat PRP
# Method: Platelet rich plasma (PRP) was prepared from heparanized whole blood (5 units/ml) drawn from the abdominal aorta of ether anesthetized rats. PRP was prepared by centrifugation (Sorvall RC2B, DuPont, Wilmington, Del.) of the whole blood at 150×g for 10 min. Platelet poor plasma (PPP) was prepared by centrifugation at 1200×g for 20 min. Aliquots of PRP and PPP were used to standardize the aggregometer (Payton, Buffalo, N.Y., model 300B) with the recorder (Riken Denshi 2 channel recorder, Payton, model SP-H5P) for measurement of minimum and maximum light transmittance, respectively.
# Platelet aggregation was measured as an increase in light transmittance. PRP (390 μl aliquot 5 μl compound vehicle) was preincubated for 1 min. at 37° C., with stirring at 900 rpm in the aggregometer. […] Amount of aggregation was measured by grids on the strip chart.
# Compounds were dissolved in either ethanol (ETOH) or Na2 CO3 (0.1 M) and preincubated at the desired concentration in PRP for 1 min. at 37° C. with stirring. […] Dose response curves were generated and IC50 's calculated by linear regression.
compound,measurement,setting,value
CC(=NNC(=S)Nc1ccccc1)[C@H]1[C@@H]2CC[C@@H](C2)[C@@H]1C/C=C\CCCC(=O)O [SC-46985],partial agonist activity,washed human platelets,lack of partial agonist activity
same,shape change or aggregation,washed human platelets; no U-46619,no evidence of shape change or aggregation
"CC(=NNC(=S)Nc1ccccc1)[C@@H]1[C@H]2CC[C@H](C2)[C@H]1C/C=C\CCCC(=O)O (relative stereo) [SC-44161, (±)7-[3α[[(Phenylamino)thioxomethyl]hydrazono]ethyl]1α,4α-bicyclo[2.2.1]hept-2β-yl]-5Z-heptenoic acid]",fold more potent in aqueous solution than in ethanol,[1]; Na Carbonate vs ETOH vehicle,5-10 fold
same,pIC50,"[1]; Rattus norvegicus, Platelet, vehicle ETOH",6.59

# From patent US4992581A, “Novel methods of manufacturing thromboxane A2 antagonists” (National Research Development Corporation, priority 1988, dated 1991)
